ChEMBL document CHEMBL1121749, “Beta-adrenergic blocking agents. 21. threo-1-(Aryloxy)-3-(alkylamino)butan-2-ols” (J Med Chem, 1981)
Active and inactive are the calls of the source. The rule behind the calls is not given here.

Target: Adrenergic receptor beta (Homo sapiens) (UniProt P08588+P07550+P13945)
Assay: Beta adrenoceptor blocking potency by inhibition of 50% of the tachycardia produced by a submaximal dose of the isoproterenol (0.2ug/kg, intravenously).
Type: functional
Conditions: Felis catus

Row | DOSE | Compound
1 | inactive | CC(C)NC(C)C(O)COc1ccc(OCc2ccccc2)cc1 (centres undefined)
2 | inactive | CC(NC(C)(C)C)C(O)COc1cccc2ccccc12 (centres undefined)
3 | inactive | COc1ccc(CCNC(C)C(O)COc2cccc3ccccc23)cc1OC (centres undefined)
4 | inactive | CC(C)NC(C)C(O)COc1ccc(CC(N)=O)cc1 (centres undefined)
5 | inactive | CC(NC(C)(C)C)C(O)COc1ccccc1C#N (centres undefined)
6 | inactive | CC(=O)Nc1ccc(OCC(O)C(C)NC(C)C)cc1 (centres undefined)
7 | inactive | CCC(=O)Nc1ccc(OCC(O)C(C)NC(C)(C)C)cc1 (centres undefined)
8 | inactive | COc1ccc(CCNC(C)C(O)COc2ccc(CC(N)=O)cc2)cc1OC (centres undefined)
9 | inactive | CC(NC(C)(C)C)C(O)COc1ccc(CC(N)=O)cc1F (centres undefined)
10 | inactive | Cc1ccc(OCC(O)C(C)NC(C)C)cc1 (centres undefined)
11 | inactive | CCC(=O)Nc1cccc2c(OCC(O)C(C)NC(C)C)cccc12 (centres undefined)
12 | inactive | CCNC(C)C(O)COc1ccc(NC(C)=O)cc1 (centres undefined)
13 | inactive | CCC(=O)Nc1ccc(OCC(O)C(C)NC(C)(C)C)c([N+](=O)[O-])c1 (centres undefined)
14 | inactive | CC(NC(C)(C)C)C(O)COc1ccc(CC(N)=O)cc1 (centres undefined)
15 | inactive | CC(=O)Nc1ccc(OCC(O)C(C)N)cc1 (centres undefined)
16 | inactive | CC(NC(C)(C)C)C(O)COc1cccc2sccc12 (centres undefined)
17 | inactive | CCC(=O)Nc1cccc2c(OCC(O)C(C)NC(C)(C)C)cccc12 (centres undefined)
18 | inactive | CC(=O)Nc1ccc(OCC(O)C(C)NC(C)(C)C)cc1 (centres undefined)
19 | inactive | C=CCc1cc(CC(N)=O)ccc1OCC(O)C(C)NC(C)(C)C (centres undefined)
20 | inactive | CC(C)NC(C)C(O)COc1ccc(Cl)c(Cl)c1 (centres undefined)
21 | inactive | CCNC(C)C(O)COc1ccc(CC(N)=O)cc1 (centres undefined)
22 | inactive | CCOc1cc(CNC(=O)CC)ccc1OCC(O)C(C)NC(C)C (centres undefined)
23 | inactive | CC(C)CNC(C)C(O)COc1cccc2ccccc12 (centres undefined)
24 | inactive | CC(=O)Nc1ccc(OCC(O)C(C)NC(C)(C)CO)cc1 (centres undefined)
25 | inactive | CC(C)NC(C)C(O)COc1ccccc1-c1nc2ccccc2s1 (centres undefined)
26 | inactive | CC(NC(C)(C)C)C(O)COc1ccccc1/C=C/C#N (centres undefined)
27 | inactive | CC(C)CNC(=O)c1ccc(OCC(O)C(C)NC(C)C)c(Cl)c1 (centres undefined)
28 | inactive | CC(C)NC(C)C(O)COc1ccc2ccccc2c1 (centres undefined)
29 | inactive | Cc1csc2cccc(OCC(O)C(C)NC(C)(C)C)c12 (centres undefined)
